This note sets out measurements from patent US20250034185A1 (priority 2021, published 2025).
Wherever P5P formed is given: test concentration or dose not given here.

This series concerns plasma enzymes. The settings on record: Sprague Dawley, rat.
Take `Cc1ncc(COP(=O)(N[C@@H](C)C(=O)OC(C)C)Oc2ccccc2)c(CN)c1O` (stereo partly drawn) [Compound 14, (2S)-Isopropyl 2-(((4-(aminomethyl)-5-hydroxy-6-methylpyridin-3-yl)methoxy)(phenoxy)phosphorylamino)propanoate]: the P5P formed amounted to 0 µM and the “relative P5P formed” value stood at 0.0%.

For `CCC(CC)COC(=O)[C@H](C)NP(=O)(OCc1cnc(C)c(O)c1CN)Oc1ccccc1` (stereo partly drawn) [Compound 14i, (2S)-2-Ethylbutyl 2-(((4-(aminomethyl)-5-hydroxy-6-methylpyridin-3-yl)methoxy)(phenoxy)phosphorylamino)propanoate], the P5P formed stood at 0.17 µM and the “relative P5P formed” value stood at 4.0%.

For the compound `Cc1ncc(COP(=O)(NCC(=O)OC(C)C)Oc2ccccc2)c(CN)c1O` (stereo not drawn) [Compound 14ii, Isopropyl 2-(((4-(aminomethyl)-5-hydroxy-6-methylpyridin-3-yl)methoxy)(phenoxy)phosphorylamino)acetate], the P5P formed was 0 µM and the “relative P5P formed” value is listed as 0.0%.

On to `Cc1ncc(COP(=O)(N[C@@H](C)C(=O)OCc2ccccc2)Oc2ccccc2)c(CN)c1O` (stereo partly drawn) [Compound 14iii, (2S)-Benzyl 2-(((4-(aminomethyl)-5-hydroxy-6-methylpyridin-3-yl)methoxy)(phenoxy)phosphorylamino)propanoate], for which the P5P formed amounted to 0.7 µM and the “relative P5P formed” value came to 6.7%.

In the case of `Cc1ncc(COP(=O)(N[C@@H](C)C(=O)OC(C)C)Oc2cccc3ccccc23)c(CN)c1O` (stereo partly drawn) [Compound 14ix, (2S)-Isopropyl 2-(((4-(aminomethyl)-5-hydroxy-6-methylpyridin-3-yl)methoxy)(naphthalen-1-yloxy)phosphorylamino)propanoate], the P5P formed came out at 0.4 µM and the “relative P5P formed” value stood at 6.3%.

As for `Cc1ncc(COP(=O)(N[C@@H](C)C(=O)OC(C)C)Oc2ccc(Cl)cc2)c(CN)c1O` (stereo partly drawn) [Compound 14v, (2S)-Isopropyl 2-(((4-(aminomethyl)-5-hydroxy-6-methylpyridin-3-yl)methoxy)(4-chlorophenoxy)phosphorylamino)propanoate], the P5P formed amounted to 0.3 µM and the “relative P5P formed” value was determined as 11.1%.

Consider `Cc1ccc(OC(=O)[C@H](C)NP(=O)(OCc2cnc(C)c(O)c2CN)Oc2ccccc2)cc1` (stereo partly drawn) [Compound 14vii, (2S)-p-Tolyl 2-(((4-(aminomethyl)-5-hydroxy-6-methylpyridin-3-yl)methoxy)(phenoxy)phosphorylamino)propanoate], for which the P5P formed is 0.5 µM and the “relative P5P formed” value came to 12.2%.

As to `[2H]C([2H])([2H])C(OC(=O)[C@H](C)NP(=O)(OCc1cnc(C)c(O)c1CN)Oc1ccccc1)C([2H])([2H])[2H]` (stereo partly drawn) [Compound 14viii], the P5P formed is 0.3 µM and the “relative P5P formed” value came to 17.6%.

For `Cc1ncc(COP(=O)(N[C@@H](C)C(=O)OC2CCCC2)Oc2ccccc2)c(CN)c1O` (stereo partly drawn) [Compound 14x, (2S)-Cyclopentyl 2-(((4-(aminomethyl)-5-hydroxy-6-methylpyridin-3-yl)methoxy)(phenoxy)phosphorylamino)propanoate], the P5P formed was 0.3 µM and the “relative P5P formed” value is reported as 11.1%.

Turning to `Cc1ncc(COP(=O)(N[C@@H](C)C(=O)OC(C)C)Oc2ccc(OC(F)(F)F)cc2)c(CN)c1O` (stereo partly drawn) [Compound 14xi, (2S)-Isopropyl 2-(((4-(aminomethyl)-5-hydroxy-6-methylpyridin-3-yl)methoxy)(4-(trifluoromethoxy)phenoxy)phosphorylamino)propanoate], the P5P formed turned out to be 0.3 µM and the “relative P5P formed” value is reported as 17.6%.

As to `Cc1ncc(COP(=O)(N[C@@H](C)C(=O)Oc2ccc3c(c2)CCCC3)Oc2ccccc2)c(CN)c1O` (stereo partly drawn) [Compound 14xii, (2S)-5,6,7,8-Tetrahydronaphthalen-2-yl 2-(((4-(aminomethyl)-5-hydroxy-6-methylpyridin-3-yl)methoxy)(phenoxy)phosphorylamino)propanoate], the P5P formed came to 0.2 µM and the “relative P5P formed” value was 5.3%.

For `[2H]C([2H])(NP(=O)(OCc1cnc(C)c(O)c1CN)Oc1ccccc1)C(=O)OC(C([2H])([2H])[2H])C([2H])([2H])[2H]` (stereo not drawn) [Compound 14xiii], the P5P formed amounted to 0.3 µM and the “relative P5P formed” value was determined as 17.6%.

In the case of `Cc1ncc(COP(=O)(N[C@@H](Cc2ccc(OCc3ccccc3)cc2)C(=O)OC(C)C)Oc2ccccc2)c(CN)c1O` (stereo partly drawn) [Compound 14xiv, (2S)-Isopropyl 2-(((4-(aminomethyl)-5-hydroxy-6-methylpyridin-3-yl)methoxy)(phenoxy)phosphorylamino)-3-(4-(benzyloxy)phenyl)propanoate], the P5P formed was determined as 0.3 µM and the “relative P5P formed” value worked out at 8.3%.

With `Cc1ncc(COP(=O)(N[C@@H](C)C(=O)OC2CCN(C)CC2)Oc2ccccc2)c(CN)c1O` (stereo partly drawn) [Compound 14xv, (2S)-1-Methylpiperidin-4-yl 2-(((4-(aminomethyl)-5-hydroxy-6-methylpyridin-3-yl)methoxy)(phenoxy)phosphorylamino)propanoate], the P5P formed was found to be 0.3 µM and the “relative P5P formed” value is 10.3%.

Take `Cc1ccc(OP(=O)(N[C@@H](C)C(=O)OC(C)C)OCc2cnc(C)c(O)c2CN)cc1` (stereo partly drawn) [Compound 14xvi, (2S)-Isopropyl 2-(((4-(aminomethyl)-5-hydroxy-6-methylpyridin-3-yl)methoxy)(p-tolyloxy)phosphorylamino)propanoate]: the P5P formed amounted to 0.3 µM and the “relative P5P formed” value is listed as 10.3%.

`Cc1ncc(COP(=O)(N[C@@H](C)C(=O)Oc2ccc(Cl)cc2)Oc2ccccc2)c(CN)c1O` (stereo partly drawn) [Compound 14xvii, (2S)-4-Chlorophenyl 2-(((4-(aminomethyl)-5-hydroxy-6-methylpyridin-3-yl)methoxy)(phenoxy)phosphorylamino)propanoate]: the P5P formed turned out to be 6.6 µM and the “relative P5P formed” value is on record as 194.1%.

As to `Cc1ncc(COP(=O)(N[C@@H](C)C(=O)OC(C)C)Oc2ccc(Br)cc2F)c(CN)c1O` (stereo partly drawn) [Compound 14xviii, (2S)-Isopropyl 2-(((4-(aminomethyl)-5-hydroxy-6-methylpyridin-3-yl)methoxy)(4-bromo-2-fluorophenoxy)phosphorylamino)propanoate], the P5P formed was found to be 2.4 µM and the “relative P5P formed” value is listed as 96.0%.

For `Cc1ncc(CO[P@@](=O)(N[C@@H](C)C(=O)OC(C)C)Oc2ccccc2)c(CO)c1O` [Compound 15i, (S)-Isopropyl 2-((S)-((5-hydroxy-4-(hydroxymethyl)-6-methylpyridin-3-yl)methoxy)(phenoxy)phosphorylamino)propanoate], the P5P formed is 0.15 µM and the “relative P5P formed” value is 2.6%.

As to `Cc1ncc(COP(=O)(N[C@@H](C)C(=O)OC(C)C)Oc2ccccc2)c(CO)c1O` (stereo partly drawn) [Compound 15ii, (S)-Isopropyl 2-((R)-((5-hydroxy-4-(hydroxymethyl)-6-methylpyridin-3-yl)methoxy)(phenoxy)phosphorylamino)propanoate], the P5P formed is 0 µM and the “relative P5P formed” value was 0.0%.

`Cc1ncc(COP(=O)(N[C@@H](C)C(=O)OC(C)C)Oc2ccc(Cl)c(Cl)c2)c(CO)c1O` (stereo partly drawn) [Compound 15iii, (2S)-Isopropyl 2-((3,4-dichlorophenoxy)((5-hydroxy-4-(hydroxymethyl)-6-methylpyridin-3-yl)methoxy)phosphorylamino)propanoate]: the P5P formed was found to be 0.4 µM and the “relative P5P formed” value was found to be 7.4%.

On to `Cc1ncc(COP(=O)(N[C@@H](C)C(=O)Oc2ccc3ccccc3c2)Oc2ccccc2)c(CO)c1O` (stereo partly drawn) [Compound 15iv, (2S)-Naphthalen-2-yl 2-(((5-hydroxy-4-(hydroxymethyl)-6-methylpyridin-3-yl)methoxy)(phenoxy)phosphorylamino)propanoate], for which the P5P formed was 0.65 µM and the “relative P5P formed” value was 6.2%.

For `COC(=O)[C@H](C)NP(=O)(OCc1cnc(C)c(O)c1CO)Oc1ccccc1` (stereo partly drawn) [Compound 15vi, (2S)-Methyl 2-(((5-hydroxy-4-(hydroxymethyl)-6-methylpyridin-3-yl)methoxy)(phenoxy)phosphorylamino)propanoate], the P5P formed was 0 µM and the “relative P5P formed” value was 0.0%.

Take `Cc1ncc(COP(=O)(N[C@@H](C)C(=O)OCC2CCCC2)Oc2ccccc2)c(CO)c1O` (stereo partly drawn) [Compound 15vii, (2S)-Cyclopentylmethyl 2-(((5-hydroxy-4-(hydroxymethyl)-6-methylpyridin-3-yl)methoxy)(phenoxy)phosphorylamino)propanoate]: the P5P formed amounted to 0 µM and the “relative P5P formed” value stood at 0.0%.

As to `Cc1ncc(COP(=O)(N[C@@H](C)C(=O)OC(C)C)Oc2cccc3ccccc23)c(CO)c1O` (stereo partly drawn) [Compound 15x, (2S)-Isopropyl 2-(((5-hydroxy-4-(hydroxymethyl)-6-methylpyridin-3-yl)methoxy)(naphthalen-1-yloxy)phosphorylamino)propanoate], the P5P formed was determined as 0 µM and the “relative P5P formed” value is reported as 0.0%.

In the case of `Cc1ncc(COP(=O)(N[C@@H](C)C(=O)OCc2ccccc2)Oc2ccccc2)c(CO)c1O` (stereo partly drawn) [Compound 15xi, (2S)-Benzyl 2-(((5-hydroxy-4-(hydroxymethyl)-6-methylpyridin-3-yl)methoxy)(phenoxy)phosphorylamino)propanoate], the P5P formed came out at 1.1 µM and the “relative P5P formed” value was found to be 10.5%.

Take `Cc1ncc(COP(=O)(N[C@H](C(=O)OC(C)C)C2CCCC2)Oc2ccccc2)c(CO)c1O` (stereo partly drawn) [Compound 15xii, (2S)-Isopropyl 2-cyclopentyl-2-(((5-hydroxy-4-(hydroxymethyl)-6-methylpyridin-3-yl)methoxy)(phenoxy)phosphorylamino)acetate]: the P5P formed was 0.2 µM and the “relative P5P formed” value amounted to 7.4%.

For `Cc1ncc(COP(=O)(N[C@@H](CC(C)C)C(=O)OC(C)C)Oc2ccccc2)c(CO)c1O` (stereo partly drawn) [Compound 15xiii, (2S)-Isopropyl 2-(((5-hydroxy-4-(hydroxymethyl)-6-methylpyridin-3-yl)methoxy)(phenoxy)phosphorylamino)-4-methylpentanoate], the P5P formed is 0.8 µM and the “relative P5P formed” value stood at 15.7%.
